This note sets out measurements from ChEMBL document CHEMBL1135360, “The design and synthesis of a novel series of indole derived selective ET(A) antagonists” (Bioorg Med Chem Lett, 2002).

Experiment [1] concerns the target T1, Endothelin-1 receptor (Homo sapiens, UniProt P25101).
T1 sequence (P25101 whole entry): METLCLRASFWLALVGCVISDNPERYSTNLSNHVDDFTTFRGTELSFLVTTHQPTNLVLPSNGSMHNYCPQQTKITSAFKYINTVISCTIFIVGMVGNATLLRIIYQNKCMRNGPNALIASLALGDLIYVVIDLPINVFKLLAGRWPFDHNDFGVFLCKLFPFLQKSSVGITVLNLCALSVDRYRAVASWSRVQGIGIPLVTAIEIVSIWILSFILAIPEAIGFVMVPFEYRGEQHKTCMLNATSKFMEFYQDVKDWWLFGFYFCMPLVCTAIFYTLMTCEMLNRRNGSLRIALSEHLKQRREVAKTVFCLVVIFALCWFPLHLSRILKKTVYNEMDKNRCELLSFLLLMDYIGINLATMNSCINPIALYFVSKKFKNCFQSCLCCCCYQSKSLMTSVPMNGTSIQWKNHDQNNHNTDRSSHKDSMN
Briefly: Displacement of [125I]-labeled ET-1 from human cloned endothelin A (ETA) receptor.

The target in experiment [2] is Endothelin receptor, ET-A/ET-B (Homo sapiens) (UniProt P24530+P25101). In words: Ratio of binding affinity at Endothelin-A receptors compared to Endothelin-B receptors. Type of experiment: protein assay.
The target of experiment [3] is T2, Endothelin receptor type B (Homo sapiens, UniProt P24530).
T2 sequence (P24530 whole entry): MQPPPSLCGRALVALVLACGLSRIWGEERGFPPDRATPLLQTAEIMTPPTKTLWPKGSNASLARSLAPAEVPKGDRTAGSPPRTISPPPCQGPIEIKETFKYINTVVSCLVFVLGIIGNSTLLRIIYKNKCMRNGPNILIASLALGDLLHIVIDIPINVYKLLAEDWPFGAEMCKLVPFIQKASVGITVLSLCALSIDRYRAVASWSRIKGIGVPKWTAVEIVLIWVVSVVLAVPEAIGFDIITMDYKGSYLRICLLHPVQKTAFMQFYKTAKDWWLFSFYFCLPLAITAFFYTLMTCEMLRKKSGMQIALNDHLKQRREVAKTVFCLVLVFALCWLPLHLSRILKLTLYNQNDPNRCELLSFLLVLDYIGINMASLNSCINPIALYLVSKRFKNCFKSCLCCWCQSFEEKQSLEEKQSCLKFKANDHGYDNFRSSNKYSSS
In words: Binding affinity towards human cloned endothelin B receptor by [125I]ET1 displacement.

In experiment [1], `CCn1cc(C(C(=O)NS(=O)(=O)c2ccc(C(C)C)cc2)c2ccc3c(c2)OCO3)c2ccc(C(=O)OC)cc21` (stereo unspecified) yielded a 50% inhibitory concentration (IC50) of 0.21 µM.

For `CC(C)c1ccc(S(=O)(=O)NC(=O)C(c2ccc3c(c2)OCO3)c2cn(C)c3cc(CN)ccc23)cc1` (stereo unspecified), the Ratio in experiment [2] amounted to 5.4. In addition, the figures for the half-inhibitory concentration (IC50) in experiment [1] and in experiment [3] were 0.038 µM and 0.204 µM, respectively.

Turning to `Cn1cc(C(C(=O)NS(=O)(=O)c2ccccc2C(=O)O)c2ccc3c(c2)OCO3)c2ccc(C(N)=O)cc21` (stereo unspecified), in experiment [2], the Ratio was found to be 272. Further, the concentration for half-maximal inhibition (IC50) in experiment [1] came to 0.0031 µM; in experiment [3] it was 0.846 µM.

For `Cn1cc(C(C(=O)NS(=O)(=O)c2ccc(C(F)(F)F)cc2)c2ccc3c(c2)OCO3)c2ccc(C(N)=O)cc21` (stereo unspecified), the Ratio in experiment [2] worked out at 35. The IC50 in experiment [1] came out at 0.0065 µM; in experiment [3], 0.228 µM.

In the case of `CC(C)c1ccc(S(=O)(=O)NC(=O)C(c2ccc3c(c2)OCO3)c2cn(C)c3cc(C(N)=O)ccc23)cc1` (stereo unspecified), the Ratio in experiment [2] was found to be 14.8. Also, the 50% inhibitory concentration (IC50) in experiment [1] amounted to 0.0023 µM; in experiment [3], 0.034 µM.

As for `CC(C)c1ccc(S(=O)(=O)NC(=O)C(c2ccc3c(c2)OCO3)c2cn(C)c3cc(C(=O)O)ccc23)cc1` (stereo unspecified), the Ratio in experiment [2] amounted to 68.2. Besides, the IC50 in experiment [1] was 0.022 µM; in experiment [3] it was 1.5 µM.

Regarding `Cn1cc(C(C(=O)NS(=O)(=O)c2ccc(Cl)cc2)c2ccc3c(c2)OCO3)c2ccc(C(N)=O)cc21` (stereo unspecified), the Ratio in experiment [2] is 146. Also, the 50% inhibitory concentration (IC50) was 0.0075 µM in experiment [1] and 1.1 µM in experiment [3].

On to `CCn1cc(C(C(=O)NS(=O)(=O)c2ccc(C(C)C)cc2)c2ccc3c(c2)OCO3)c2ccc(C(=O)N(C)C)cc21` (stereo unspecified), for which the Ratio in experiment [2] amounted to 6.6. In addition, the half-maximal inhibitory concentration (IC50) was 0.072 µM in experiment [1] and 0.474 µM in experiment [3].

In turn, `CC(C)c1ccc(S(=O)(=O)NC(=O)C(c2ccc3c(c2)OCO3)c2cn(C)c3cc(C#N)ccc23)cc1` (stereo unspecified) had an IC50 in experiment [1] of 0.061 µM.

As for `CCn1cc(C(C(=O)NS(=O)(=O)c2ccc(C(C)C)cc2)c2ccc3c(c2)OCO3)c2ccc(C(N)=O)cc21` (stereo unspecified), the Ratio in experiment [2] is 19.7. Moreover, the IC50 turned out to be 0.0035 µM in experiment [1] and 0.068 µM in experiment [3].

As for `CC(C)c1ccc(S(=O)(=O)NC(=O)C(c2ccc3c(c2)OCO3)c2cn(C)c3cc(-c4nn[nH]n4)ccc23)cc1` (stereo unspecified), the IC50 in experiment [1] stood at 0.035 µM.

Consider `COc1cc(OC)nc(O[C@H](C(=O)O)C(OC)(c2ccccc2)c2ccccc2)n1` [DARUSENTAN], for which the values for the concentration for half-maximal inhibition (IC50) in experiment [1] and in experiment [3] were 0.0008 µM and 0.016 µM, respectively.

Regarding `CC(C)c1ccc(S(=O)(=O)NC(=O)C(c2ccc3c(c2)OCO3)c2cn(C)c3cc(CO)ccc23)cc1` (stereo unspecified), in experiment [2], the Ratio worked out at 23.7. For the same molecule, the half-inhibitory concentration (IC50) in experiment [1] is 0.019 µM; in experiment [3], 0.45 µM.

In experiment [1], `CC(C)c1ccc(S(=O)(=O)NC(=O)C(c2ccc3c(c2)OCO3)c2c[nH]c3cc(C(=O)O)ccc23)cc1` (stereo unspecified) had a 50% inhibitory concentration (IC50) of 0.031 µM.

Take `COc1ccc(S(=O)(=O)NC(=O)C(c2ccc3c(c2)OCO3)c2cn(C)c3cc(C(N)=O)ccc23)cc1` (stereo unspecified): in experiment [2], the Ratio came to 34. Further, the concentration for half-maximal inhibition (IC50) was 0.0028 µM in experiment [1] and 0.094 µM in experiment [3].

As for `Cn1cc(C(C(=O)NS(=O)(=O)c2ccccc2)c2ccc3c(c2)OCO3)c2ccc(C(N)=O)cc21` (stereo unspecified), the Ratio in experiment [2] was 184. In addition, the IC50 was found to be 0.012 µM in experiment [1] and 2.57 µM in experiment [3].

Turning to `CCOc1cc(C)ccc1S(=O)(=O)NC(=O)C(c1ccc2c(c1)OCO2)c1cn(C)c2cc(C(N)=O)ccc12` (stereo unspecified), the Ratio in experiment [2] was determined as 722. Moreover, the IC50 came to 0.00055 µM in experiment [1] and 0.397 µM in experiment [3].

Turning to `COc1cc(C)ccc1S(=O)(=O)NC(=O)C(c1ccc2c(c1)OCO2)c1cn(C)c2cc(C(N)=O)ccc12` (stereo unspecified), in experiment [2], the Ratio stood at 275. In addition, the IC50 is 0.0011 µM in experiment [1] and 0.302 µM in experiment [3].

`CCn1cc(C(C(=O)NS(=O)(=O)c2ccc(C(C)C)cc2)c2ccc3c(c2)OCO3)c2ccc(C(=O)NC)cc21` (stereo unspecified): the Ratio in experiment [2] is 7. The values for the IC50 in experiment [1] and in experiment [3] were 0.03 µM and 0.21 µM, respectively.

As to `COC(=O)c1ccc2c(C(C(=O)NS(=O)(=O)c3ccc(C(C)C)cc3)c3ccc4c(c3)OCO4)cn(C)c2c1` (stereo unspecified), the IC50 in experiment [1] was determined as 0.1 µM.

On to `Cc1ccccc1S(=O)(=O)NC(=O)C(c1ccc2c(c1)OCO2)c1cn(C)c2cc(C(N)=O)ccc12` (stereo unspecified), for which the Ratio in experiment [2] stood at 203. The values for the half-maximal inhibitory concentration (IC50) in experiment [1] and in experiment [3] were 0.0052 µM and 1.06 µM, respectively.

As for `CCn1cc(C(C(=O)NS(=O)(=O)c2ccc(C(C)C)cc2)c2ccc3c(c2)OCO3)c2ccc(C(=O)O)cc21` (stereo unspecified), the Ratio in experiment [2] was found to be 68.8. Moreover, the figures for the IC50 in experiment [1] and in experiment [3] were 0.032 µM and 2.2 µM, respectively.

With `Cc1ccc(S(=O)(=O)NC(=O)C(c2ccc3c(c2)OCO3)c2cn(C)c3cc(C(N)=O)ccc23)cc1` (stereo unspecified), the Ratio in experiment [2] came out at 430. Besides, the figures for the half-inhibitory concentration (IC50) in experiment [1] and in experiment [3] were 0.0018 µM and 0.774 µM, respectively.

On to `COc1ccccc1S(=O)(=O)NC(=O)C(c1ccc2c(c1)OCO2)c1cn(C)c2cc(C(N)=O)ccc12` (stereo unspecified), for which the Ratio in experiment [2] was 62. The concentration for half-maximal inhibition (IC50) in experiment [1] came out at 0.005 µM; in experiment [3], 0.31 µM.
